Experiments:
[1] = test system: full length and Δ7 SMN2 mRNA; test: Endogenous SMN2 mRNA end-point semi-quantitative RT-PCR splicing assay in cultured cells; assay type: cell-based, human; settings: Type 1 SMA patient fibroblasts (GM03813), increasing concentrations, 24 hr, FIG. 5
Method: The endpoint reverse transcription-PCR splicing assay is used to visualize and quantify the levels of the full length and Δ7 SMN2 mRNA in primary cells and cell lines containing the SMN2 gene treated with a test compound.
GM03813 SMA patient cells (5,000 cells/well) are seeded in 200 μL of cell culture medium (DMEM plus 10% FBS) in 96-well flat-bottom plates and the plate is immediately swirled to ensure proper dispersal of cells, forming an even monolayer of cells. Cells are allowed to attach for at least 4-6 hrs. Test compounds are serially diluted 3.16-fold in 100% DMSO to generate a 7-point concentration curve. A solution of test compound (1 μL, 200× in DMSO) is added to each test well and 1 μL DMSO is added to each control well. The plate is incubated for 24 hrs in a cell culture incubator (37° C., 5% CO2, 100% relative humidity). The cells are then lysed in Cells-To-Ct lysis buffer and the lysate is stored at 80° C.
SMN FL and Δ7 mRNA are identified using the following primers in Table 6. These primers hybridize to a nucleotide sequence in exon 6 (SMN Forward C, SEQ ID NO. 11) (nucleotide 43 to nucleotide 63) and exon 8 (SMN Reverse C, SEQ ID NO. 12) (nucleotide 51 to nucleotide 73) common to human SMN1 and SMN2 mRNA. Since the SMA patient cells used in Example 4 contain only the SMN2 gene, RT-PCR can visualize and quantify only SMN2 full-length and SMN2 Δ7 mRNA.
(§1) To synthesize cDNA, 5 μL of lysate, 4 μL of 5× iScript reaction mix, 1 μL of reverse transcriptase, and 10 μL of water are combined and incubated 5 min at 25° C. followed by 30 min at 42° C., followed by 5 min at 85° C. The cDNA solution is stored at −20° C.
(§2) To perform endpoint PCR, 5 μL of cDNA, 0.2 μL of 100 μM forward primer, 0.2 μL of 100 μM reverse primer, and 22.5 μL of polymerase super mix are combined in a 96 well semiskirted PCR plate. PCR is carried out at the following temperatures for the indicated time: Step 1: 94° C. (2 min), Step 2: 94° C. (30 sec), Step 3: 55° C. (30 sec), Step 4: 68° C. (1 min), then repeat Steps 2 to 4 for a total of 33 cycles, then hold at 4° C.
10 μL of each PCR sample is electrophoretically separated on a 2% agarose E-gel for 14 minutes stained with double-stranded DNA (dsDNA) staining reagents (e.g., ethidium bromide) and visualized using a gel imager.

[2] = test system: human SMN1 minigene full length and Δ7 mRNA; test: Human SMN1 minigene mRNA end-point semi-quantitative RT-PCR splicing assay in cultured cells; assay type: cell-based; settings: HEK293H cells transfected with SMN1-A minigene, increasing concentrations, 7 hours, FIG. 17
Description: The RT-PCR assay is used to visualize and quantify the levels of the human SMN1 minigene full length and Δ7 mRNA in primary cells and cell lines expressing the human SMN1 minigene construct treated with a test compound.
Using the procedure for the preparation of the SMN2 minigene construct described in Biological Example 1, the SMN1 version of the minigene is generated by changing the sixth nucleotide of exon 7 (a thymine residue) of the SMN2-A minigene construct to cytosine using site directed mutagenesis. Thus, similar to the SMN2-A minigene construct, the SMN1 minigene construct has a single adenine residue inserted after nucleic residue 48 of exon 7. The SMN1 minigene construct is referred to as SMN1-A.
HEK293H cells (10,000 cells/well/199 μL) were transfected, using FuGENE-6 reagent, in a 96-well plate with 15 ng of the SMN1-A minigene reporter plasmid per well. Cells were incubated for 24 hours following transfection. Test compounds were serially diluted 3.16-fold in 100% DMSO to generate a 7-point concentration curve. A solution of test compound (1 μL, 200× in DMSO) was added to each test well. 1 μL DMSO was added to each control well. The plate was incubated for 7 hours in a cell culture incubator (37° C., 5% CO2, 100% relative humidity). The cells were then lysed in Cells-To-Ct lysis buffer and the lysates were stored at 80° C.
Two SMN spliced mRNA are generated from the SMN1 minigene. The term “SMN1 minigene FL” refers to the first spliced product containing exon 7, corresponding to full length SMN1 mRNA. The term “SMN1 minigene A7” refers to the second product lacking exon 7.
SMN minigene FL and Δ7 mRNA are amplified using the primers in Table 11. Primer SMN Forward C (SEQ ID NO. 11) hybridizes to a nucleotide sequence in exon 6 (nucleotide 43 to nucleotide 63), primer SMN Reverse A (SEQ ID NO. 2) hybridizes to a nucleotide sequence in the coding sequence of Firefly luciferase. The combination of these two oligonucleotides detects only SMN1 or SMN2 minigenes (RT-PCR) and will not detect endogenous SMN1 or SMN2 genes. Since the SMA patient cells used in Example 16 were transfected with only the human SMN1 minigene, RT-PCR can visualize and quantify only SMN1 minigene full-length and SMN1 minigene Δ7 mRNA.
as §1
as §2, with “(30 sec), Step 3: 55° C. (30 sec), Step 4: 68° C. (1 min), then repeat Steps 2 to 4 for a total of 33 cycles, then hold at 4° C.” left out

SMILES | SMN2 FL mRNA (gel band) [1] | SMN2 Δ7 mRNA (gel band) [1] | SMN1 minigene FL mRNA (gel band) [2] | SMN1 minigene Δ7 mRNA (gel band) [2]
Cc1cn2cc(-c3cc4ccc(N5CCN(C)CC5)cc4c(=O)o3)nc2c(C)n1 [Cpd 65, 3-(6,8-dimethylimidazo[1,2-a]pyrazin-2-yl)-7-(4-methylpiperazin-1-yl)-1H-isochromen-1-one] | progressively more SMN2 FL mRNA | less SMN2 Δ7 mRNA | progressively more SMN1 minigene FL mRNA | less SMN1 minigene Δ7 mRNA
Cc1cn2cc(-c3cc4ccc(N5CCN6CCC[C@H]6C5)cc4c(=O)o3)nc2c(C)n1 [Cpd 69, 3-(6,8-dimethylimidazo[1,2-a]pyrazin-2-yl)-7-[(8aS)-hexahydropyrrolo[1,2-a]pyrazin-2(1H)-yl]-1H-isochromen-1-one] | progressively more SMN2 FL mRNA | less SMN2 Δ7 mRNA | progressively more SMN1 minigene FL mRNA | less SMN1 minigene Δ7 mRNA

From US9399649B2, “Compounds for treating spinal muscular atrophy” (PTC Therapeutics Inc., priority 2012, dated 2016)
